Assay results taken from patent publication US20190224186A1, “TREATMENT OF MULTIPLE SCLEROSIS WITH CHS-131” (InteKrin Therapeutics, Inc., priority 2016, published 2019).
Several values for one entry are separate records, joined by “and”; a condition that tells them apart may be missing. Equal values may be shown once.

Legend:
[1] = test system: MS patients in the relapsing and remitting course of the disease (RRMS); assay: Phase 2 trial: new and enlarged T2 lesions over 6 months; assay type: in vivo, human; conditions: for mean number of new and enlarged T2 lesions over 6 months: n=76
Description: A Phase 2, randomized, double-blind, placebo-controlled, multi-center clinical trial of CHS-131 for the treatment of multiple sclerosis (MS) was conducted. The primary endpoint was the number of new gadolinium contrast-enhancing (CE) T1-weighted lesions on monthly MRI over 6 months. The study enrolled MS patients in the relapsing and remitting course of the disease (RRMS) who had been diagnosed within ≤3 years of enrollment. Patients had to be treatment-naïve, have ≥1 gadolinium-positive lesion within 12 months of enrollment, and have an Expanded Disability Status Score (EDSS) of 0-6 at screening. Part 1 was a double-blind, parallel-group, 6-month study. Patients were randomized to oral CHS-131 at 3 mg or 1 mg or placebo in a 1:1:1 ratio at 21 sites in Russia. Monthly MRIs were read in a blinded fashion at the Buffalo Neuroimaging and Analysis Center, Buffalo, N.Y., USA. Part 2 is an open label, 6-month, safety extension study, in which all subjects transition to 1 mg CHS-131 daily, to evaluate clinical response, CE lesions on MM, and safety. The mean number of new and enlarged lesions over 6 months was 3.43 for 3 mg CHS131 (n=76), 4.21 for 1 mg CHS131 (n=76), and 4.89 for placebo (n=74). The response was dose-dependent.

[2] = test system: MS patients in the relapsing and remitting course of the disease (RRMS); assay: Calculated dose response curve: expected new gadolinium CE T1-weighted lesions over six months; design: species or system human
Description: To test the hypothesis that women will benefit from higher doses of CHS-131 and identify efficacious doses of CHS-131 for women, a dose response curve was calculated. The dose response curve was calculated to determine the efficacy of various daily dose of CHS-131 for males and females. The dose-response curve is assumed to have the following form: RDose=α exp β−Dose+γ Parameter β was determined from negative binomial regression using the observed total new GAD CE lesions 6 Months and numeric dosage of 0, 1, 3 mg. Parameters α and γ were determined using least-squares method on the observed mean total new GAD CE lesions 6 Months. Based on the clinical trial data, we calculated the expected number of new gadolinium CE T1-weighted lesions that would be seen over six months on doses of CHS-131 ranging from 1 to 10 mg per day. Table 7 below provides a tabular report of the percent reduction compared to the number of lesions at a 0 mg dose.

For `O=S(=O)(Nc1cc(Cl)c(Oc2cnc3ccccc3c2)c(Cl)c1)c1ccc(Cl)cc1Cl` [CHS-131], the “reduction in T2 lesions compared to placebo (LSMeans analysis)” value ([1]; 1 mg) was 14%, the “mean number of new and enlarged T2 lesions over 6 months” value ([1]; 1 mg) was 4.21 and the “mean number of new and enlarged T2 lesions over 6 months” value ([1]; 3 mg) was 3.43. The “reduction in T2 lesions compared to placebo (LSMeans analysis)” value ([1]; 3 mg, p=0.0767) was 30%, the “Expected # of Lesions” value ([2]; Females, 1 mg) was 7.14 and the “Expected Percent Change from Placebo” value ([2]; Females, 1 mg) was −25.9%. For the same compound, the “Expected Percent Reduction vs 0 mg dose” value ([2]; Females, 1 mg) was 13.98%, the “Expected # of Lesions” value ([2]; Females, 2 mg) was 6.15 and the “Expected Percent Change from Placebo” value ([2]; Females, 2 mg) was −36.0%. For the same compound, the “Expected Percent Reduction vs 0 mg dose” value ([2]; Females, 2 mg) was 25.90%, the “Expected # of Lesions” value ([2]; Females, 3 mg) was 5.31 and the “Expected Percent Change from Placebo” value ([2]; Females, 3 mg) was −44.7%. For the same compound, the “Expected Percent Reduction vs 0 mg dose” value ([2]; Females, 3 mg) was 36.02%, the “Expected # of Lesions” value ([2]; Females, 4 mg) was 4.59 and the “Expected Percent Change from Placebo” value ([2]; Females, 4 mg) was −52.1%. For the same compound, the “Expected Percent Reduction vs 0 mg dose” value ([2]; Females, 4 mg) was 44.70%, the “Expected # of Lesions” value ([2]; Females, 5 mg) was 3.97 and the “Expected Percent Change from Placebo” value ([2]; Females, 5 mg) was −58.5%. The “Expected Percent Reduction vs 0 mg dose” value ([2]; Females, 5 mg) was 52% and 52.17%, the “Expected # of Lesions” value ([2]; Females, 6 mg) was 3.45 and the “Expected Percent Change from Placebo” value ([2]; Females, 6 mg) was −63.9%. The “Expected Percent Reduction vs 0 mg dose” value ([2]; Females, 6 mg) was 58.43%, the “Expected # of Lesions” value ([2]; Females, 7 mg) was 3.00 and the “Expected Percent Change from Placebo” value ([2]; Females, 7 mg) was −68.5%. For the same compound, the “Expected Percent Reduction vs 0 mg dose” value ([2]; Females, 7 mg) was 63.86%, the “Expected # of Lesions” value ([2]; Females, 8 mg) was 2.62 and the “Expected Percent Change from Placebo” value ([2]; Females, 8 mg) was −72.4%. For the same compound, the “Expected Percent Reduction vs 0 mg dose” value ([2]; Females, 8 mg) was 68.43%, the “Expected # of Lesions” value ([2]; Females, 9 mg) was 2.29 and the “Expected Percent Change from Placebo” value ([2]; Females, 9 mg) was −75.8%. For the same compound, the “Expected Percent Reduction vs 0 mg dose” value ([2]; Females, 9 mg) was 72.41%, the “Expected # of Lesions” value ([2]; Females, 10 mg) was 2.01 and the “Expected Percent Change from Placebo” value ([2]; Females, 10 mg) was −100.0%. For the same compound, the “Expected Percent Reduction vs 0 mg dose” value ([2]; Females, 10 mg) was 75.78%, the “Expected # of Lesions” value ([2]; Males & Females, 1 mg) was 6.79 and the “Expected Percent Change from Placebo” value ([2]; Males & Females, 1 mg) was −31.4%. For the same compound, the “Expected Percent Reduction vs 0 mg dose” value ([2]; Males & Females, 1 mg) was 17.20%, the “Expected # of Lesions” value ([2]; Males & Females, 2 mg) was 5.63 and the “Expected Percent Change from Placebo” value ([2]; Males & Females, 2 mg) was −43.0%. For the same compound, the “Expected Percent Reduction vs 0 mg dose” value ([2]; Males & Females, 2 mg) was 31.34%, the “Expected # of Lesions” value ([2]; Males & Females, 3 mg) was 4.67 and the “Expected Percent Change from Placebo” value ([2]; Males & Females, 3 mg) was −52.6%. For the same compound, the “Expected Percent Reduction vs 0 mg dose” value ([2]; Males & Females, 3 mg) was 43.05%, the “Expected # of Lesions” value ([2]; Males & Females, 4 mg) was 3.89 and the “Expected Percent Change from Placebo” value ([2]; Males & Females, 4 mg) was −60.5%. For the same compound, the “Expected Percent Reduction vs 0 mg dose” value ([2]; Males & Females, 4 mg) was 52.56%, the “Expected # of Lesions” value ([2]; Males & Females, 5 mg) was 3.24 and the “Expected Percent Change from Placebo” value ([2]; Males & Females, 5 mg) was −66.9%. The “Expected Percent Reduction vs 0 mg dose” value ([2]; Males & Females, 5 mg) was 60.49%, the “Expected # of Lesions” value ([2]; Males & Females, 6 mg) was 2.71 and the “Expected Percent Change from Placebo” value ([2]; Males & Females, 6 mg) was −72.3%. For the same compound, the “Expected Percent Reduction vs 0 mg dose” value ([2]; Males & Females, 6 mg) was 66.95%, the “Expected # of Lesions” value ([2]; Males & Females, 7 mg) was 2.27 and the “Expected Percent Change from Placebo” value ([2]; Males & Females, 7 mg) was −76.6%. The “Expected Percent Reduction vs 0 mg dose” value ([2]; Males & Females, 7 mg) was 72.32%, the “Expected # of Lesions” value ([2]; Males & Females, 8 mg) was 1.92 and the “Expected Percent Change from Placebo” value ([2]; Males & Females, 8 mg) was −80.2%. For the same compound, the “Expected Percent Reduction vs 0 mg dose” value ([2]; Males & Females, 8 mg) was 76.59%, the “Expected # of Lesions” value ([2]; Males & Females, 9 mg) was 1.62 and the “Expected Percent Change from Placebo” value ([2]; Males & Females, 9 mg) was −83.2%. The “Expected Percent Reduction vs 0 mg dose” value ([2]; Males & Females, 9 mg) was 80.24%, the “Expected # of Lesions” value ([2]; Males & Females, 10 mg) was 1.38 and the “Expected Percent Change from Placebo” value ([2]; Males & Females, 10 mg) was −100.0%. The “Expected Percent Reduction vs 0 mg dose” value ([2]; Males & Females, 10 mg) was 83.17%, the “Expected # of Lesions” value ([2]; Males, 1 mg) was 6.33 and the “Expected Percent Change from Placebo” value ([2]; Males, 1 mg) was −42.0%. The “Expected Percent Reduction vs 0 mg dose” value ([2]; Males, 1 mg) was 23.73%, the “Expected # of Lesions” value ([2]; Males, 2 mg) was 4.81 and the “Expected Percent Change from Placebo” value ([2]; Males, 2 mg) was −56.1%. For the same compound, the “Expected Percent Reduction vs 0 mg dose” value ([2]; Males, 2 mg) was 42.05%, the “Expected # of Lesions” value ([2]; Males, 3 mg) was 3.64 and the “Expected Percent Change from Placebo” value ([2]; Males, 3 mg) was −67.1%. For the same compound, the “Expected Percent Reduction vs 0 mg dose” value ([2]; Males, 3 mg) was 56% and 56.14%, the “Expected # of Lesions” value ([2]; Males, 4 mg) was 2.73 and the “Expected Percent Change from Placebo” value ([2]; Males, 4 mg) was −75.5%. The “Expected Percent Reduction vs 0 mg dose” value ([2]; Males, 4 mg) was 67.11%, the “Expected # of Lesions” value ([2]; Males, 5 mg) was 2.03 and the “Expected Percent Change from Placebo” value ([2]; Males, 5 mg) was −82.1%. The “Expected Percent Reduction vs 0 mg dose” value ([2]; Males, 5 mg) was 75.54%, the “Expected # of Lesions” value ([2]; Males, 6 mg) was 1.49 and the “Expected Percent Change from Placebo” value ([2]; Males, 6 mg) was −87.1%. For the same compound, the “Expected Percent Reduction vs 0 mg dose” value ([2]; Males, 6 mg) was 82.05%, the “Expected # of Lesions” value ([2]; Males, 7 mg) was 1.07 and the “Expected Percent Change from Placebo” value ([2]; Males, 7 mg) was −91.0%. For the same compound, the “Expected Percent Reduction vs 0 mg dose” value ([2]; Males, 7 mg) was 87.11%, the “Expected # of Lesions” value ([2]; Males, 8 mg) was 0.74 and the “Expected Percent Change from Placebo” value ([2]; Males, 8 mg) was −94.1%. The “Expected Percent Reduction vs 0 mg dose” value ([2]; Males, 8 mg) was 91.08%, the “Expected # of Lesions” value ([2]; Males, 9 mg) was 0.49 and the “Expected Percent Change from Placebo” value ([2]; Males, 9 mg) was −96.4%. For the same compound, the “Expected Percent Reduction vs 0 mg dose” value ([2]; Males, 9 mg) was 94.10%, the “Expected # of Lesions” value ([2]; Males, 10 mg) was 0.30 and the “Expected Percent Change from Placebo” value ([2]; Males, 10 mg) was −100.0%. For the same compound, the “Expected Percent Reduction vs 0 mg dose” value ([2]; Males, 10 mg) was 96.39%, the “reduction in new lesions on the dose response curve in Table 8” value ([2]; men, 3 mg per day) was 67% and the “expected reduction in lesions as compared to placebo (Table 8)” value ([2]; men, 5 mg per day as printed) was 67%. For the same compound, the “expected reduction in lesions as compared to placebo (Table 8)” value ([2]; women, 5 mg per day) was 56%.
